Experimental data from PubChem BioAssay (NCI).
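Method: 48-hour compound exposure of cells in 96-well plates, five concentrations, linear interpolation of endpoints. TGI: total growth inhibition.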

Key:
Experiment in all cases: growth of human tumour cells (NCI), 48 h
CAKI-1 renal = test system: CAKI-1 renal
XF 498 CNS = test system: XF 498 CNS
M19-MEL melanoma = test system: M19-MEL melanoma
NCI-H226 lung = test system: NCI-H226 lung
HL-60(TB) leukemia = test system: HL-60(TB) leukemia
U251 CNS = test system: U251 CNS
A498 renal = test system: A498 renal
KM20L2 colon = test system: KM20L2 colon
UACC-257 melanoma = test system: UACC-257 melanoma
HCT-15 colon = test system: HCT-15 colon
SK-MEL-28 melanoma = test system: SK-MEL-28 melanoma
RPMI-8226 leukemia = test system: RPMI-8226 leukemia
MDA-MB-435 = test system: MDA-MB-435
DMS 114 small cell lung = test system: DMS 114 small cell lung
OVCAR-4 ovarian = test system: OVCAR-4 ovarian
IGROV1 ovarian = test system: IGROV1 ovarian
PC-3 prostate = test system: PC-3 prostate
HS 578T breast = test system: HS 578T breast
LOX IMVI melanoma = test system: LOX IMVI melanoma
NCI-H522 lung = test system: NCI-H522 lung
A549 NSCLC = test system: A549 NSCLC
DMS 273 small cell lung = test system: DMS 273 small cell lung
ACHN renal = test system: ACHN renal
HOP-62 NSCLC = test system: HOP-62 NSCLC
NCI-H460 lung = test system: NCI-H460 lung
TK-10 renal = test system: TK-10 renal
K-562 leukemia = test system: K-562 leukemia
OVCAR-8 ovarian = test system: OVCAR-8 ovarian
RXF 393 renal = test system: RXF 393 renal
MDA-N = test system: MDA-N
BT-549 breast = test system: BT-549 breast
EKVX NSCLC = test system: EKVX NSCLC
MDA-MB-231 breast = test system: MDA-MB-231 breast
HCT-116 colon = test system: HCT-116 colon
HCC-2998 colon = test system: HCC-2998 colon
T-47D breast = test system: T-47D breast
SF-268 CNS = test system: SF-268 CNS
CCRF-CEM leukemia = test system: CCRF-CEM leukemia
HOP-92 NSCLC = test system: HOP-92 NSCLC
DU-145 prostate = test system: DU-145 prostate
SW-620 colon = test system: SW-620 colon
OVCAR-3 ovarian = test system: OVCAR-3 ovarian
SF-539 CNS = test system: SF-539 CNS
SK-OV-3 ovarian = test system: SK-OV-3 ovarian
SNB-78 CNS = test system: SNB-78 CNS
SR leukemia = test system: SR leukemia
MALME-3M melanoma = test system: MALME-3M melanoma
COLO 205 colon = test system: COLO 205 colon
786-0 renal = test system: 786-0 renal
NCI-H23 lung = test system: NCI-H23 lung
DLD-1 colon = test system: DLD-1 colon
NCI/ADR-RES ovarian = test system: NCI/ADR-RES ovarian
HT29 colon = test system: HT29 colon
LXFL 529 NSCLC = test system: LXFL 529 NSCLC
SK-MEL-5 melanoma = test system: SK-MEL-5 melanoma
UO-31 renal = test system: UO-31 renal
MCF7 breast = test system: MCF7 breast
KM12 colon = test system: KM12 colon
M14 melanoma = test system: M14 melanoma
SK-MEL-2 melanoma = test system: SK-MEL-2 melanoma
SNB-75 CNS = test system: SNB-75 CNS
SF-295 CNS = test system: SF-295 CNS
UACC-62 melanoma = test system: UACC-62 melanoma
SNB-19 CNS = test system: SNB-19 CNS
SN12C renal = test system: SN12C renal
OVCAR-5 ovarian = test system: OVCAR-5 ovarian
RXF-631 renal = test system: RXF-631 renal
HOP-18 NSCLC = test system: HOP-18 NSCLC
MOLT-4 leukemia = test system: MOLT-4 leukemia

CCCCCCCCCCCCCCCCCCN(C)CC(COP(=O)([O-])OCC[N+](C)(C)C)OC (stereo unspecified)
TGI (CAKI-1 renal): 20.9 µM
TGI (XF 498 CNS): 29.9 µM
TGI (M19-MEL melanoma): 13.1 µM
TGI (NCI-H226 lung): 42.4 µM
TGI (HL-60(TB) leukemia): 11.1 µM
TGI (U251 CNS): 10.1 µM
TGI (A498 renal): 39.3 µM
TGI (KM20L2 colon): 4.16 µM
TGI (UACC-257 melanoma): 56.4 µM
TGI (HCT-15 colon): 23.5 µM
TGI (SK-MEL-28 melanoma): 56.8 µM
TGI (RPMI-8226 leukemia): 18.6 µM
TGI (MDA-MB-435): 97 µM
TGI (DMS 114 small cell lung): 20.5 µM
TGI (OVCAR-4 ovarian): 29.6 µM
TGI (IGROV1 ovarian): 6.63 µM
TGI (PC-3 prostate): 32.9 µM
TGI (HS 578T breast): > 85.8 µM
TGI (LOX IMVI melanoma): 26 µM
TGI (NCI-H522 lung): 30.2 µM
TGI (A549 NSCLC): 46.8 µM
TGI (DMS 273 small cell lung): 5.4 µM
TGI (ACHN renal): 48.8 µM
TGI (HOP-62 NSCLC): 28.4 µM
TGI (NCI-H460 lung): 12.2 µM
TGI (TK-10 renal): 8.46 µM
TGI (K-562 leukemia): 54.6 µM
TGI (OVCAR-8 ovarian): 44.8 µM
TGI (RXF 393 renal): 8.55 µM
TGI (MDA-N): > 100 µM
TGI (BT-549 breast): > 100 µM
TGI (EKVX NSCLC): 48.2 µM
TGI (MDA-MB-231 breast): > 100 µM
TGI (HCT-116 colon): 43.3 µM
TGI (HCC-2998 colon): 24.2 µM
TGI (T-47D breast): > 100 µM
TGI (SF-268 CNS): 27.5 µM
TGI (CCRF-CEM leukemia): 24.3 µM
TGI (HOP-92 NSCLC): 35.6 µM
TGI (DU-145 prostate): > 100 µM
TGI (SW-620 colon): 47 µM
TGI (OVCAR-3 ovarian): 51.6 µM
TGI (SF-539 CNS): 40.3 µM
TGI (SK-OV-3 ovarian): 27.4 µM
TGI (SNB-78 CNS): 21.3 µM
TGI (SR leukemia): 28.6 µM
TGI (MALME-3M melanoma): 43.3 µM
TGI (COLO 205 colon): 8.47 µM
TGI (786-0 renal): 14.7 µM
TGI (NCI-H23 lung): 49.3 µM
TGI (DLD-1 colon): 17.3 µM
TGI (NCI/ADR-RES ovarian): > 100 µM
TGI (HT29 colon): 15 µM
TGI (LXFL 529 NSCLC): 21.6 µM
TGI (SK-MEL-5 melanoma): 43.8 µM
TGI (UO-31 renal): 48.8 µM
TGI (MCF7 breast): > 62.3 µM
TGI (KM12 colon): 7.71 µM
TGI (M14 melanoma): 29.6 µM
TGI (SK-MEL-2 melanoma): 53.7 µM
TGI (SNB-75 CNS): 15.6 µM
TGI (SF-295 CNS): 23.9 µM
TGI (UACC-62 melanoma): 32.9 µM
TGI (SNB-19 CNS): 18.5 µM
TGI (SN12C renal): > 50.6 µM
TGI (OVCAR-5 ovarian): 11.1 µM
TGI (RXF-631 renal): 43.7 µM
TGI (HOP-18 NSCLC): 32.5 µM
TGI (MOLT-4 leukemia): 11.3 µM

NC(N)=NS(=O)(=O)c1ccc(NCCc2c3ccccc3nc3ccccc23)cc1
TGI (CAKI-1 renal): > 100 µM
TGI (M19-MEL melanoma): > 100 µM
TGI (NCI-H226 lung): > 100 µM
TGI (HL-60(TB) leukemia): 82.5 µM
TGI (U251 CNS): > 100 µM
TGI (KM20L2 colon): > 100 µM
TGI (UACC-257 melanoma): > 100 µM
TGI (HCT-15 colon): > 100 µM
TGI (SK-MEL-28 melanoma): > 100 µM
TGI (RPMI-8226 leukemia): > 100 µM
TGI (DMS 114 small cell lung): > 100 µM
TGI (OVCAR-4 ovarian): 53.8 µM
TGI (IGROV1 ovarian): > 100 µM
TGI (LOX IMVI melanoma): > 100 µM
TGI (NCI-H522 lung): > 100 µM
TGI (A549 NSCLC): > 100 µM
TGI (DMS 273 small cell lung): > 100 µM
TGI (ACHN renal): > 100 µM
TGI (HOP-62 NSCLC): > 100 µM
TGI (NCI-H460 lung): > 100 µM
TGI (TK-10 renal): > 100 µM
TGI (K-562 leukemia): > 100 µM
TGI (OVCAR-8 ovarian): > 100 µM
TGI (RXF 393 renal): > 100 µM
TGI (EKVX NSCLC): > 100 µM
TGI (HCT-116 colon): > 100 µM
TGI (HCC-2998 colon): > 100 µM
TGI (SF-268 CNS): > 100 µM
TGI (CCRF-CEM leukemia): > 100 µM
TGI (HOP-92 NSCLC): > 100 µM
TGI (SW-620 colon): > 100 µM
TGI (OVCAR-3 ovarian): > 100 µM
TGI (SF-539 CNS): > 100 µM
TGI (SK-OV-3 ovarian): > 100 µM
TGI (SR leukemia): > 100 µM
TGI (MALME-3M melanoma): > 100 µM
TGI (COLO 205 colon): > 100 µM
TGI (786-0 renal): > 100 µM
TGI (DLD-1 colon): > 100 µM
TGI (HT29 colon): > 100 µM
TGI (LXFL 529 NSCLC): > 100 µM
TGI (UO-31 renal): > 100 µM
TGI (KM12 colon): > 100 µM
TGI (M14 melanoma): > 100 µM
TGI (SK-MEL-2 melanoma): > 100 µM
TGI (SNB-75 CNS): > 100 µM
TGI (SF-295 CNS): > 100 µM
TGI (SNB-19 CNS): > 100 µM
TGI (SN12C renal): > 100 µM
TGI (OVCAR-5 ovarian): > 100 µM
TGI (RXF-631 renal): > 100 µM
TGI (MOLT-4 leukemia): > 100 µM
